The text below walks through data of patent US20250345391A1, “COMPOSITIONS AND METHODS FOR THE TREATMENT OF SEPSIS” (Children's Hospital Medical Center, priority 2022, published 2025).

The test system of experiment [1] is STAT3. The experiment is described as follows: Western blot of STAT3 and phosphorylated forms in thoracic aorta after CLP. It is filed as in vivo, Male C57BL/6 mice. To be noted: 6 h after CLP. An excerpt: The investigation conformed to the National Institutes of Health Guide for the Care and Use of Laboratory Animals (Eighth Edition, 2011) and was approved by the Institutional Animal Care and Use Committee of the Cincinnati Children's Hospital Medical Center. Male C57BL/6 mice were obtained from Charles River Laboratories International, Inc. (Wilmington, MA). Mice were used at 3-5 months of age to mimic the equivalent for human ranges from 20-25 years (29). Male mice only were chosen for the experimentation to avoid interference from female hormonal fluctuations in sepsis responses during the estrous cycle. Mice were housed in pathogen-free conditions under a 10-h light/14-h dark cycle with free access to food and water. Mice were anesthetized with 2.0% isoflurane in 50% oxygen and polymicrobial sepsis was induced by cecal ligation and puncture (CLP) (30). After a midline laparotomy, the cecum was exteriorized, ligated and punctured twice with a 23-G needle. The cecum was then returned into the peritoneal cavity and the abdominal incision was closed. After the procedure, mice were randomly assigned to three treatment groups: a vehicle-treated group received distilled water (200 μl/mouse) intraperitoneally (i.p.); a 100 μg colivelin-treated group received the colivelin at 100 μg/kg i.p., and a 200 μg colivelin-treated group received the colivelin at 200 μg/kg i.p. at 1 h after CLP. The intraperitoneal injection was chosen to allow for a rapid uptake and bioavailability of the peptide. All groups of mice also received fluid resuscitation (35 ml/kg normal saline solution subcutaneously) immediately after, at 3 h and 12 h after the CLP procedure. To minimize pain at the surgical incision site, lidocaine hydrochloride (1%, 4 mg/kg total dose) was applied locally immediately after the procedure. […] Mice were then sacrificed at 0, 6 and 18 h after CLP. Blood, lungs, kidneys, liver, and thoracic aortas were collected for biochemical assays.
Subcellular fractionation was performed using a centrifugation model. Tissue samples of lung and thoracic aortas were homogenized in a buffer (50 mg tissue/100 μL) containing 0.32 M sucrose, 10 mM Tris-HCl (pH 7.4), 1 mM EGTA, 2 mM EDTA, 5 mM NaN3, 10 mM β-mercaptoethanol, 2 μM leupeptin, 0.15 μM pepstatin A, 0.2 mM phenylmethanesulfonyl fluoride, 50 mM NaF, 1 mM sodium orthovanadate and 0.4 nM microcystin. Samples were centrifuged at 1000×g for 10 min at 4° C. and the supernatants collected as cytosol extracts, which also contain membrane and mitochondria. The pellets were then solubilized in Triton buffer (1% Triton X-100, 250 mM NaCl, 50 mM Tris HCl at pH 7.5, 3 mM EGTA, 3 mM EDTA, 1 mM phenylme-thanesulfonyl fluoride, 0.1 mM sodium orthovanadate, 10% glycerol, 2 mM p-nitrophenyl phosphate, 0.5% NP-40 and 46 μM aprotinin). The lysates were rocked for 1 h and subsequently centrifuged at 15,000×g for 30 min at 4° C. and the supernatant collected as nuclear extracts. The Bradford protein assay was then used for quantitative determination of total proteins.
Cytosol content of total AMPKα1/α2 and its phosphorylated form pAMPKα1/α2 (Santa Cruz Biotechnology, Dallas, TX, USA), cytosol and nuclear content of STAT3 and its phosphorylated forms pSTAT3(Tyr705) and pSTAT3(Ser727) (Cell Signaling Technology, Danvers, MA, USA) were determined by immunoblot analyses; β-actin was concomitantly probed with mouse anti-β-actin (Santa Cruz Biotechnology) as a loading control for both cytosol and nuclear proteins. Extracts were heated at 70° C. in equal volumes of 4× Protein Sample Loading Buffer. Twenty-five μg of proteins were loaded per lane on a 10% Bis-Tris gel. Proteins were separated electrophoretically and transferred to nitro-cellulose membranes. The immunoreaction was detected by near-infrared fluorescence. Membranes were blocked with Odyssey blocking buffer (LI-COR Biotechnology, Lincoln, NE, USA) and incubated with primary antibodies. […]
A general note: In western blotting, separated proteins are transferred to a membrane and probed.

The subject of experiment [2] is lung sections. The experiment is described as follows: Lung histopathology after CLP sepsis. Format: in vivo, Male C57BL/6 mice. To be noted: 6 h after CLP; colivelin 100 or 200 μg/kg i.p. at 1 h after CLP; vs vehicle. The source says:
The investigation conformed to the National Institutes of Health Guide for the Care and Use of Laboratory Animals (Eighth Edition, 2011) and was approved by the Institutional Animal Care and Use Committee of the Cincinnati Children's Hospital Medical Center. Male C57BL/6 mice were obtained from Charles River Laboratories International, Inc. (Wilmington, MA). Mice were used at 3-5 months of age to mimic the equivalent for human ranges from 20-25 years (29). Male mice only were chosen for the experimentation to avoid interference from female hormonal fluctuations in sepsis responses during the estrous cycle. Mice were housed in pathogen-free conditions under a 10-h light/14-h dark cycle with free access to food and water. Mice were anesthetized with 2.0% isoflurane in 50% oxygen and polymicrobial sepsis was induced by cecal ligation and puncture (CLP) (30). […]
Paraffin-embedded sections of thoracic aortas and lungs were stained with hematoxylin and eosin for morphological evaluation by three independent observers blinded to the treatment groups. Lung injury was also analyzed by a semiquantitative score based on the following histologic features: alveolar capillary congestion, infiltration of red blood cells and inflammatory cells into the airspace, alveolar wall thickness, and hyaline membrane formation (34). […]

The mark [3] stands for this setting: colivelin i.p. at 1 h after CLP, vs vehicle.

For Colivelin (SALLRSIPAPAGASRLLLLTGEIDLP), the “Nuclear expression of pSTAT3(Tyr705), thoracic aorta” value in experiment [1] (colivelin at the highest dose) is on record as “inhibited”. In experiment [1] (setting [3]), the “Cytosolic expression of pSTAT3(Ser727), thoracic aorta” value was “significantly reduced”; the “Cytosolic expression of pSTAT3(Tyr705), thoracic aorta” value is given as “significantly reduced”; the “Levels of total STAT3 in the cytosol, thoracic aorta” value is “restored”; the “Levels of total STAT3 in the nucleus, thoracic aorta” value is recorded as “remained unchanged”. Besides, the “Nuclear expression of pSTAT3(Ser727), thoracic aorta” value in experiment [1] (setting [3]) is “did not affect”. Also, the “Microscopic examination of hematoxylin and eosin-stained lung sections” value in experiment [2] was “reduced infiltration of inflammatory cells and ameliorated alveolar damage”.
